One assay deals with human adipocytes. In words: Assay of the free fatty acids (lipolytic activity) in isolated human adipocytes in suspension. In kind it is cell-based. The settings on record: incubation concentration 0.0019 wt % DE. An excerpt: Hydrolysis of the triglycerides to nonesterified fatty acids and glycerol is called lipolysis. Triglycerides are stored in the adipocytes and constitute the fat reserve. For this reserve to diminish, which is the desired aim when slimming products are used, the triglycerides should be hydrolysed in the form of fatty acids, which in their case can be removed from the cell. Hydrolysis of the triglycerides calls into play a hormone-dependent lipase which must be phosphorylated in order to be active. The phosphorylation step uses a kinase and cAMP. An increase in the cAMP content of the adipocytes is necessary for promoting the activity of the lipase and therefore the lipolysis. The method described consists in incubating the products in the presence of human adipocytes in suspension, followed by […].
The test is carried out using human adipocytes isolated and prepared as a cellular suspension. The adipocytes are isolated from the subcutaneous abdominal adipose tissue recovered during plastic surgery operations (abdominal plastic surgery operations) performed on women. The cells are isolated from fresh tissue. The adipose tissue is isolated and dissociated by the action of a collagenase (SIGMA™, 1 mg/ml, 30 minutes at 37° C., gentle stirring). Collagenase digests the connective tissue present in the adipose tissue. After digestion, the cells are filtered and washed in an appropriate culture medium containing MEM medium free of phenol red, free of glutamine (SIGMA)+2.2 mg/ml of sodium bicarbonate (GIBCO)+50 IU of penicillin (BIOWHITTAKER™)+50 μg/ml of streptomycin (BIOWHITTAKER™)+1% (v/v) of L-glutamine (BIOWHITTAKER™)+0.5% of lipid-free serum albumin (SIGMA™). The adipocyte suspension is used immediately after its preparation.
The test products are diluted in the adipocyte culture medium. They are incubated with the cells in suspension for two hours at 37° C. (250 μl of product+250 μl of adipocyte suspension).
After the incubation, the cell lysis is checked visually by the presence of a lipid layer at the surface of the cellular suspension. The supernatant media are collected. The free fatty acids are assayed by spectrophotometry using a commercial kit (NEFA™ C kit, WAKO), with reference to a fatty acid calibration series. The lypolytic activity of the products is evaluated relative to a control group incubated in the presence of adipocytes and in the absence of product. […] Five assays are performed for each of the test products which are as follows:
This assay is repeated by carrying out new assays at different concentrations.

Another assay deals with T1, human pancreatic lipase (Homo sapiens, UniProt P16233).
T1 construct: purchased SIGMA LIPASE-PS kit
T1 sequence (P16233 17-465): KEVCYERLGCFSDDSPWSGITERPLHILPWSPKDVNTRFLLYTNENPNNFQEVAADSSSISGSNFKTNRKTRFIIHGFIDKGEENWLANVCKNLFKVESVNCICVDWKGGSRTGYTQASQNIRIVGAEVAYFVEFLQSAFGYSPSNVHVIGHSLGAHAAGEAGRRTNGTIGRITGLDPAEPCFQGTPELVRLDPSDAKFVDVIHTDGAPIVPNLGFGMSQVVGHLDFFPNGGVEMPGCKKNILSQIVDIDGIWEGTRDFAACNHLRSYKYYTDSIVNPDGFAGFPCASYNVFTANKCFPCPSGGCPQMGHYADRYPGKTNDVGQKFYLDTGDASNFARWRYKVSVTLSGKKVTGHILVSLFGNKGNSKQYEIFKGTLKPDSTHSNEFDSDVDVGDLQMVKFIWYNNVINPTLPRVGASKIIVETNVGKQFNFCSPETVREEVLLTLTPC
T1 sequence (P02703 23-112 partner): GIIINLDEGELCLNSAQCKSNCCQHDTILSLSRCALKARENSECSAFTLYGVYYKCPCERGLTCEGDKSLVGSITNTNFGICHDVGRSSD
Kind of assay: Measurement of the activity of lipase (LIPASE-PS kit, absorbance 550 nm). In kind it is biochemical. The following applies: relative to the control, 8 minutes at 37° C. The protocol:
Lipase is an enzyme which degrades triglycerides to fatty acids and glycerol according to the following reaction scheme: [drawing 5]
Inside the adipocytes, the free fatty acids can thus be removed from storage. […] It is based on an enzymatic test, using a purified enzyme.
A human pancreatic lipase (SIGMA, LIPASE-PS™ kit) is incubated in the presence of a diglyceride and a reaction system to produce a coloured quinone diimine which can be assayed by spectrophotometry (550 nm). The measurement of the absorbance at 550 nm is directly proportional to the activity of the lipase.
All the […] are provided in the LIPASE-PS™ kit (SIGMA) . The product is incubated with the reaction mixture for 8 minutes at 37° C.
The reaction system used is composed of:
The results are presented in the following table as a percentage activation of the lipase relative to the control.

In a further assay the test system is lipoprotein lipase (LPL). Kind of assay: Measurement of the activity of lipoprotein lipase (PNPB hydrolysis, 400 nm). In kind it is biochemical, pseudomonas species. The settings on record: relative to the control. The protocol: Lipoprotein lipase (LPL) is an enzyme found in the extracellular compartment of adipocytes. It brings about the hydrolysis of the triglycerides contained in the chylomicrons to fatty acids and glycerol. The latter can thus penetrate into the adipocytes to be stored therein. […] It is based on an enzymatic test using a purified enzyme. A lipoprotein lipase (SIGMA, pseudomonas species) is incubated in the presence of a substrate, p-nitrophenyl butyrate (PNPB), which absorbs light at 400 nm after hydrolysis. [drawing 6] The enzyme, at 20 U/ml, is incubated in the presence of the test product and PNPB, at 0.9 mM. The kinetics of appearance of p-nitrophenol is performed at 37° C. for 10 minutes. It is monitored by measuring the absorbance at 400 nm. The results are presented in the following table, as a percentage inhibition of the lipoprotein lipase activity relative to the control.

For the next assay, the target named is T2, human recombinant MMP-9 (Homo sapiens, UniProt P14780).
T2 construct: purchased CALBIOCHEM PF024
In words: Measurement of the activity of metalloproteinase MMP-9 (DQ-gelatin fluorescence). The class given is biochemical. The settings on record: incubation concentration 0.1 % DE; relative to the control. The protocol: The objective of this test is to evaluate the inhibitory capacity of a product on the enzymatic activity of MMP-2 and MMP-9. This test is based on an enzymatic reaction between purified MMP-2 or MMP-9 and a specific substrate containing a chromophore. The degradation of the chromogenic substrate by the enzyme leads to the production of fluorescence monitored by fluorimetry.
(i)—A human recombinant MMP-9 (CALBIOCHEM, PF024) is incubated, at 0.05 μg/ml, in the presence of the product and the chromogenic substrate, DQ-gelatin conjugated with fluorescein (MOLECULAR PROBE, D12054) at 10 μg/ml. The reaction mixture is incubated overnight at room temperature, protected from light. The quantity of DQ-gelatin degraded is measured by fluorescence (Ex: 355 nm; Em: 460 nm).
The reactivity of the enzymatic system is systematically monitored for the measurement of the effect of a metalloproteinase inhibitor, 1,10-phenanthroline. The results are presented in the following table, as a percentage inhibition of the enzymatic activity of MMP-2 and MMP-9 relative to the control.

Setting [1] is: incubation concentration 0.01 % DE.
Setting [2] is: incubation concentration 0.1 % DE.

Each structure is given as a SMILES string.

T2 sequence (P14780 107-707 limits assumed): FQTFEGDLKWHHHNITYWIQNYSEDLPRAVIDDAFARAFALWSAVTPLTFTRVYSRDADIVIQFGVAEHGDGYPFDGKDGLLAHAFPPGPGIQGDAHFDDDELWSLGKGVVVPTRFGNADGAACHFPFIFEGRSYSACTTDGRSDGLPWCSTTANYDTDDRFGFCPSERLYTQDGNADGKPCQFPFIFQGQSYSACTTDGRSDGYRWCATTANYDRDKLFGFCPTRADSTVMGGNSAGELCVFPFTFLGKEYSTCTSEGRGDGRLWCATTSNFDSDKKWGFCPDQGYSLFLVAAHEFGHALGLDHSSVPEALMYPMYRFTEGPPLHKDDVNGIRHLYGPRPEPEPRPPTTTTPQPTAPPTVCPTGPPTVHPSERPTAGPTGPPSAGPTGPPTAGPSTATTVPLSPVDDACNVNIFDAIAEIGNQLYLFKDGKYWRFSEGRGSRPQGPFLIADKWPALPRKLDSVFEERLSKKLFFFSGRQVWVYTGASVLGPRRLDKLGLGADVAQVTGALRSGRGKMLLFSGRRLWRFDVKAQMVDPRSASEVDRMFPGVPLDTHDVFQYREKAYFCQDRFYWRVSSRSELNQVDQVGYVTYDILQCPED

On to `Cn1c(=O)c2c(ncn2C)n(C)c1=O` [Caffeine, 1,3,7-trimethyl-xanthine], for which the “Free fatty acid concentration” value with human adipocytes (2 h at 37° C., mean of five assays) was 15.10 ± 4.11 µM. In addition, the “Lipolytic activity (compared with the control = 100)” value in the assay with human adipocytes (control = 100) was determined as 131. Besides, the “Percentage activation of the lipase” value on human pancreatic lipase (setting [1]) is recorded as 0%; at human pancreatic lipase (setting [2]) it was 10%. Also, the “Percentage inhibition of LPL” value with lipoprotein lipase (LPL) (setting [1]) and with lipoprotein lipase (LPL) (setting [2]) was 0% each time. Also, the MMP-9 inhibiting effect on human recombinant MMP-9 is 0%.

The record behind these values is patent US20040166079A1, “N-Lauroyl amino acid composition for slimming the human body” (priority 2003, published 2004).
